In patent US20090186844A1, “SiRNA DELIVERY INTO MAMMALIAN NERVE CELLS” (priority 2003, published 2009):
Where a name gives a salt, the structure may show the parent alone.

Columns and labels:
[1] = tested on: phrenic motor output; experiment: Phrenic activity following intrathecal BDNF injections; assay type: in vivo, rat; settings: 90 min post-injection
Protocol: (§1) Surgical procedures have been described elsewhere (7). Rats were anesthetized with isoflurane (2.5% in 50% O2), vagotomized and pump-ventilated (Harvard Apparatus, South Natick, Mass.). The phrenic nerve was dissected, cut distally and desheathed. A laminectomy was performed over C2, and a silicone catheter (2 French, Access Technologies; Skokie, Ill.) connected to a 50 μl glass syringe (Hamilton; Reno Nev.) was advanced through a small hole in the dura at C2, such that the tip of the catheter lay over C4-C5. Following surgery, rats were converted to urethane anesthesia (1.6 g/kg, i.v.) and were paralyzed with pancuronium bromide (2.5 mg/kg). Supplemental doses of urethane were given as necessary. […] End-tidal PCO2 was monitored using a flow-through capnograph (Novametrix, Wallingford, Conn.). […]
Respiratory-related activity was recorded in the phrenic nerve with a bipolar silver electrode. […] Phrenic activity was digitized, recorded and analyzed using the WINDAQ data acquisition system (DATAQ Instruments, Akron, Ohio).
An intrathecal catheter was placed and 10-13 μl solutions of BDNF (0.1 μg, n=5) or vehicle (artificial CSF+0.1% BSA; n=5) were injected. To determine if intrathecal BDNF injections unintentionally spread beyond the spinal cord to cranial motor pools, the hypoglossal nerve was also dissected, desheathed and recorded. […]

[2] = tested on: phrenic long-term facilitation (pLTF); experiment: pLTF following intermittent hypoxia after intrathecal pretreatment; assay type: in vivo, rat; settings: for effect on pLTF: one anesthetized rat each, intrathecal, 30 min prior to intermittent hypoxia, UO126 0.4 mg, KN62/KN93 2 mg
Protocol: The phrenic nerve was dissected, cut distally and desheathed. A laminectomy was performed over C2, and a silicone catheter (2 French, Access Technologies; Skokie, Ill.) connected to a 50 μl glass syringe (Hamilton; Reno Nev.) was advanced through a small hole in the dura at C2, such that the tip of the catheter lay over C4-C5. Following surgery, rats were converted to urethane anesthesia (1.6 g/kg, i.v.) and were paralyzed with pancuronium bromide (2.5 mg/kg). Supplemental doses of urethane were given as necessary. […] End-tidal PCO2 was monitored using a flow-through capnograph (Novametrix, Wallingford, Conn.). Periodically throughout the protocol, arterial blood was collected (0.3 ml) in a heparinized syringe to ensure that values remained constant (PaO2<45 mmHg in hypoxia, PaO2>120 mmHg in hyperoxia, PaCO2±1 mmHg from baseline value). Arterial PCO2 was corrected to the target range by adjusting ventilator frequency as necessary.
Ninety minutes after surgery, stable integrated phrenic discharge was established in hyperoxia (baseline; 50% O2, PaO2>120 mmHg), with CO2 added to the inspired gas so that PaCO2 was 2-3 mmHg above the CO2 apneic threshold (45 mmHg). In rats receiving intrathecal injections of vehicle or drug solutions, a bolus injection of 10-15 μl was given, and 30-35 min were allowed for drugs to penetrate the spinal cord prior to beginning protocols. Blood gases were measured before, during, and 15, 30 and 60 min post-intermittent hypoxia or hypercapnia, or at corresponding times in control rats (without hypoxia or hypercapnia).
Intrathecal injections of K252a were performed prior to intermittent hypoxia; K252a was prepared as described above. Intrathecal K252a (n=6) or vehicle (DMSO+artificial CSF; n=5) was delivered 30 min prior to intermittent hypoxia, and phrenic discharge was monitored continuously for 60 min post-intermittent hypoxia.

[3] = tested on: phrenic burst amplitude; assay type: in vivo, rat
Protocol: To determine if MAP kinase activation is sufficient to facilitate phrenic burst amplitude, one anesthetized rat was intrathecally injected with anisomycin ([…]; 20 mM), a protein synthesis inhibitor that also non-specifically activates MAP kinases.

[4] = tested on: BDNF protein concentration in ventral C3-C5; experiment: Ventral C3-C5 BDNF protein concentration (ELISA) after intermittent hypoxia, intrathecal drug pretreatment; assay type: in vivo, rat; settings: 60 min post-intermittent hypoxia, intrathecal methysergide 250 microgram/kg or emetine 1 μg/kg 30 min prior
Protocol: as §1
Ninety minutes after surgery, stable integrated phrenic discharge was established in hyperoxia (baseline; 50% O2, PaO2>120 mmHg), with CO2 added to the inspired gas so that PaCO2 was 2-3 mmHg above the CO2 apneic threshold (45 mmHg). […] Blood gases were measured before, during, and 15, 30 and 60 min post-intermittent hypoxia or hypercapnia, or at corresponding times in control rats (without hypoxia or hypercapnia). […]

[5] = tested on: phrenic LTF; experiment: pLTF following sustained hypoxia after protein phosphatase inhibition; assay type: in vivo, rat; settings: okadaic acid 0.15 mg; 20 mM intrathecally to C4 30 min prior to sustained hypoxia (25 min)
Protocol: Air, O2 and/or N2 were mixed to achieve the desired pattern of inspired oxygen concentration. […] Control groups receiving similar surgery or treatments, but not receiving hypoxia, […].
Accordingly, in one anesthetized rat, […] okadaic acid (0.15 mg; 20 mM), a protein phosphatase 1/2A (PP1 and PP2A) inhibitor, was delivered intrathecally to C4 30 min prior to sustained hypoxia (25 min). […] This finding has been successfully repeated in three additional rats.

[6] = biological target: TrkB receptor (rat) (UniProt Q63604); experiment: cell-based or functional assay
TrkB receptor (rat), sequence (Q63604 32-821): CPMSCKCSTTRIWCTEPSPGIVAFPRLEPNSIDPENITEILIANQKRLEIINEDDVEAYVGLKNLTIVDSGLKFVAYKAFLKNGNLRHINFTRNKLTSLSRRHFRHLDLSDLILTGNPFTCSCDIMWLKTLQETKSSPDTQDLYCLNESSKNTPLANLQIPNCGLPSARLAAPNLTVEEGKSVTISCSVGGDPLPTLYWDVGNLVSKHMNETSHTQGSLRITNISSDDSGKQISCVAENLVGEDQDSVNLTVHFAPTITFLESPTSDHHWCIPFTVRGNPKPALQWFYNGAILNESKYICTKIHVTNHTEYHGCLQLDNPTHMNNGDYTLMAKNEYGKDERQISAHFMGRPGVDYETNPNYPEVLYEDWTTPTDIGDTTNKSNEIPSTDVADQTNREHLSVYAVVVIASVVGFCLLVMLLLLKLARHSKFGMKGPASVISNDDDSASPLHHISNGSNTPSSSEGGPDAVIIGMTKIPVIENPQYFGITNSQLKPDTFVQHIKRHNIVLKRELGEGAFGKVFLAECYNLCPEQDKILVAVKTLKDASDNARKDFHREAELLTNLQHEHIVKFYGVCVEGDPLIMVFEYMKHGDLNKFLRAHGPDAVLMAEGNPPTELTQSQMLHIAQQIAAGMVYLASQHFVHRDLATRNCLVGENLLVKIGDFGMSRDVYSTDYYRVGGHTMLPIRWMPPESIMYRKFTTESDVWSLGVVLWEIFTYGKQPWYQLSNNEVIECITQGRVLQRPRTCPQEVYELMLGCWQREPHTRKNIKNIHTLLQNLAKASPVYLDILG

[7] = tested on: hypoglossal nerve activity; experiment: Hypoglossal nerve activity following intrathecal BDNF injections; assay type: in vivo, rat; settings: intrathecal BDNF 0.1 μg; 90 min post-injection
Protocol: An intrathecal catheter was placed and 10-13 μl solutions of BDNF (0.1 μg, n=5) or vehicle (artificial CSF+0.1% BSA; n=5) were injected. To determine if intrathecal BDNF injections unintentionally spread beyond the spinal cord to cranial motor pools, the hypoglossal nerve was also dissected, desheathed and recorded. […] In another group of rats, two intrathecal catheters were placed over C4, and a bolus injection of the tyrosine kinase inhibitor K252a was given 10 min prior to BDNF injection (BDNF+K252a; BDNF=0.1 μg; K252a=0.15 microgram, n=3). Recombinant human BDNF (Promega Corporation, Madison, Wis.) was dissolved in artificial CSF+0.1% bovine serum albumin (BSA). K252a (Calbiochem; San Diego, Calif.) was initially dissolved in dimethylsulfoxide (DMSO; 100 μg K252a in 1.5 ml DMSO) and frozen in 200 μl aliquots. Prior to experimentation, 0.8 ml artificial CSF was added to a 200 μl aliquot of K252a/DMSO solution, of which 10-15 μl was delivered intrathecally (final concentration of K252a=0.13-0.2 μg; 28 μM). Vehicle delivery was as described above (DMSO+artificial CSF), except K252a was not added. At 30, 60 and 90 min post-injection, arterial blood gases were analyzed to ensure that PaO2 and PaCO2 levels were similar to pre-injection values.

COC(=O)[C@@]1(O)C[C@H]2O[C@]1(C)n1c3ccccc3c3c4c(c5c6ccccc6n2c5c31)C(=O)NC4 [K252a]
BDNF-induced phrenic facilitation after K252a pre-treatment, change from baseline ([1]; intrathecal K252a 10 min prior to BDNF 0.1 μg): 9±10% | phrenic burst amplitude increase from baseline (pLTF) ([2]; 60 min post-intermittent hypoxia, intrathecal K252a 0.13-0.2 μg 30 min prior): 25±6%

CN([C@@H](Cc1ccc(OS(=O)(=O)c2cccc3cnccc23)cc1)C(=O)N1CCN(c2ccccc2)CC1)S(=O)(=O)c1cccc2cnccc12 [KN62]
effect on pLTF [2]: did not block pLTF

COc1ccc(S(=O)(=O)N(CCO)c2ccccc2CN(C)C/C=C/c2ccc(Cl)cc2)cc1 [KN93]
effect on pLTF [2]: did not block pLTF

N#CC(=C(/N)Sc1ccccc1N)/C(C#N)=C(/N)Sc1ccccc1N [UO126]
effect on pLTF [2]: blocked pLTF | effect of pretreatment on anisomycin-induced increase in phrenic amplitude ([3]; UO126 0.4 mg, 100 mM pretreatment, n=1): prevented the effect

COc1ccc(C[C@H]2NC[C@H](O)[C@H]2OC(C)=O)cc1 [anisomycin]
phrenic burst amplitude increase above pre-injection levels ([3]; one anesthetized rat, intrathecal anisomycin 100 mg, 20 mM, thirty min post-injection): 60%

CC[C@H]1CN2CCc3cc(OC)c(OC)cc3[C@@H]2C[C@@H]1C[C@H]1NCCc2cc(OC)c(OC)cc21 [emetine]
change in ventral cervical BDNF concentration from corresponding drug control [4]: 19±11%

CC[C@@H](CO)NC(=O)[C@@H]1C=C2c3cccc4c3c(cn4C)C[C@H]2N(C)C1 [methysergide, methysergide maleate]
change in ventral cervical BDNF concentration from corresponding drug control [4]: −10±8%

C=C1[C@@H](O)[C@@H]2O[C@]3(CC[C@H](/C=C/[C@@H](C)[C@@H]4CC(C)=C[C@@]5(O[C@H](C[C@@](C)(O)C(=O)O)CC[C@H]5O)O4)O3)CC[C@H]2O[C@@H]1[C@@H](O)C[C@H](C)[C@H]1O[C@@]2(CCCCO2)CC[C@H]1C [okadaic acid]
pLTF 60 min following sustained hypoxia [5]: a modest pLTF was apparent

Recombinant human BDNF (Promega Corporation) (from UniProt P23560 129-247) (ligand)
integrated phrenic discharge (percent change from baseline) 90 min after intrathecal BDNF injection in anesthetized rats (% above baseline) [6]: 125

B1: BDNF: Recombinant human BDNF (Promega), brain-derived neurotrophic factor (protein)
chain: HSDPARRGELSVCDSISEWVTAADKKTAVDMSGGTVTVLEKVPVSKGQLKQYFYETKCNPMGYTKEGCRGIDKRHWNSQCRTTQSYVRALTMDSKKRIGWRFIRIDTSCVCTLTIKRGR
integrated phrenic discharge, change above baseline ([1]; intrathecal BDNF 0.1 μg): 125±25% | hypoglossal nerve activity, change from baseline [7]: 30±17%
